In patent US20180327367A1, “MACROCYCLIC BROAD SPECTRUM ANTIBIOTICS” (priority 2015, published 2018):
In brackets after ≈: the same amount, converted by molar mass. Where two headings read alike, the source gives them in different places.

Legend:
Format in all cases: cell-based
[1] = system: Methicillin Resistant Staphylococcus aureus strain USA 300, NRS384; assay: Minimum inhibitory concentration, broth micro-dilution (CLSI), S. aureus; settings: Staphylococcus aureus, MRSA / NRS 384 / USA300, 22 h, 35° C., 22 hours
Summary of the method: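 Colonies grown 20 hours at 35° C were suspended in cation-adjusted Mueller Hinton Broth with 0.002% Tween-80. Cells were then added to 2-fold compound dilutions starting at 4 or 0.5 μg/mL, at OD600 0.0005.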

[2] = system: Escherichia coli MC4100 harboring the IMP4213 (E. coli IMP); assay: microbe, parasite or virus in culture; settings: Escherichia coli, 22 h, read-out: MIC (μg/mL) E. coli IMP, E. coli MC4100 IMP4213, increased outer-membrane permeability; 35° C., 22 hours
Summary of the method: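 Ten 2-fold dilutions, from 4 μg/mL or from 0.5 μg/mL depending on protocol, are challenged with bacteria at OD600 0.0005 in Tween-80-supplemented cation-adjusted Mueller Hinton Broth. Plates incubate 22 hours at 35° C per CLSI. The E. coli IMP4213 strain has increased outer-membrane permeability.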

[3] = system: Escherichia coli ATCC 25922; assay: Minimum inhibitory concentration, broth micro-dilution (CLSI), E. coli; settings: Escherichia coli, ATCC25922, 22 h, 35° C., 22 hours
[4] = read-out: MIC (μg/mL) S. aureus, MRSA USA 300 NRS384
[5] = read-out: MIC (μg/mL) E. coli, E. coli ATCC 25922
[6] = MRSA USA 300 NRS384, read-out: MIC (μg/mL) S. aureus
[7] = E. coli ATCC 25922, read-out: MIC (μg/mL) E. coli

SMILES | MIC [1, 4] [µg/mL] | MIC [2] [µg/mL] | MIC [3, 5] [µg/mL] | MIC [1, 6] [µg/mL] | MIC [3, 7] [µg/mL]
CCCCCCc1ccc(C(=O)N[C@@H](CCNC=N)C(=O)N(C)[C@@H]2C(=O)N[C@@H](C)C(=O)N[C@H](C(=O)NCC#N)Cc3ccc(O)c(c3)-c3cc2ccc3O)c(C)c1 [Compound 467] | 1 (≈ 1.28 µM) | 1 (≈ 1.28 µM) | > 64 | – | –
CCCCCCCCCCCCCC(=O)N(C)[C@@H]1C(=O)N[C@@H](C)C(=O)N[C@H](C(=O)N[C@@H](C)C#N)Cc2ccc(OCCN)c(c2)-c2cc1ccc2OCCN [Compound 474] | – | 0.19 (≈ 0.249 µM) | – | 2 (≈ 2.62 µM) | 4 (≈ 5.25 µM)
CCCCCCc1ccc(C(=O)N[C@@H](Cc2ccncc2)C(=O)N(C)[C@@H]2C(=O)N[C@@H](C)C(=O)N[C@H](C(=O)NCC#N)Cc3ccc(OCCN)c(c3)-c3cc2ccc3OCCN)c(C)c1 [Compound 479] | – | 0.5 (≈ 0.563 µM) | – | 0.25 (≈ 0.282 µM) | 32 (≈ 36 µM)
CCCCCCc1ccc(C(=O)N[C@@H](CCNC(=N)N)C(=O)N(C)[C@@H]2C(=O)N[C@@H](C)C(=O)N[C@H](C(=O)NCC#N)Cc3ccc(OCCN)c(c3)-c3cc2ccc3OCCN)c(C)c1 [Compound 485] | – | 0.031 (≈ 0.0351 µM) | – | 0.063 (≈ 0.0714 µM) | 2 (≈ 2.27 µM)
CCCCCCCCc1ccc2c(=O)n([C@@H](CCN)C(=O)N(C)[C@@H]3C(=O)N[C@@H](C)C(=O)N[C@H](C(=O)NCC#N)Cc4ccc(OCCN)c(c4)-c4cc3ccc4OCCN)cnc2c1 [Compound 486] | 0.094 (≈ 0.107 µM) | 0.13 (≈ 0.148 µM) | 3 (≈ 3.41 µM) | – | –
CCCCCCCCc1ccc2c(=O)n([C@@H](CCN)C(=O)N(C)[C@@H]3C(=O)N[C@@H](C)C(=O)N[C@H](C(=O)NCC#N)Cc4ccc(OCCN)c(c4)-c4cc3ccc4OCCN)c(C)nc2c1 [Compound 487] | – | 0.25 (≈ 0.28 µM) | – | 0.5 (≈ 0.56 µM) | 8 (≈ 8.96 µM)
CCCCCCCCc1ccc2c(c1)CN([C@@H](CCN)C(=O)N(C)[C@@H]1C(=O)N[C@@H](C)C(=O)N[C@H](C(=O)NCC#N)Cc3ccc(OCCN)c(c3)-c3cc1ccc3OCCN)C2=O [Compound 488] | 0.094 (≈ 0.109 µM) | 0.13 (≈ 0.15 µM) | 4 (≈ 4.62 µM) | – | –
CCCCCCCCc1ccc2c(c1)C(C)N([C@@H](CCN)C(=O)N(C)[C@@H]1C(=O)N[C@@H](C)C(=O)N[C@H](C(=O)NCC#N)Cc3ccc(OCCN)c(c3)-c3cc1ccc3OCCN)C2=O (stereo partly drawn) [Compound 489] | – | 0.25 (≈ 0.284 µM) | – | 0.19 (≈ 0.216 µM) | 8 (≈ 9.09 µM)
C[C@@H]1NC(=O)[C@@H](N(C)C(=O)[C@H](CCN)NC(=O)CCCc2ccc(F)cc2)c2ccc(OCCN)c(c2)-c2cc(ccc2OCCN)C[C@@H](C(=O)NCC#N)NC1=O [Compound 493] | – | 2 (≈ 2.49 µM) | – | 3 (≈ 3.74 µM) | > 64
CCCCCCc1ccc(C(=O)N[C@@H]2CN[C@H](C(=O)N(C)[C@@H]3C(=O)N[C@@H](C)C(=O)N[C@H](C(=O)NCC#N)Cc4ccc(OCCN)c(c4)-c4cc3ccc4OCCN)C2)c(C)c1 [Compound 498] | – | 1 (≈ 1.17 µM) | – | 0.5 (≈ 0.587 µM) | 16 (≈ 18.8 µM)
CCCCCCCc1ccc(C(=O)N[C@@H](CCN)C(=O)N(C)[C@@H]2C(=O)N[C@@H](C)C(=O)N[C@H](C(=O)NCC#N)Cc3ccc(OCCNC(=O)CN)c(c3)-c3cc2ccc3OCCNC(=O)CN)c(C)c1 [Compound 499] | – | 0.023 (≈ 0.0238 µM) | – | 0.063 (≈ 0.0651 µM) | 0.5 (≈ 0.516 µM)
CCCCCCCCc1ccc(C(=O)N[C@@H](CCC(=O)NC)C(=O)N(C)[C@@H]2C(=O)N[C@@H](C)C(=O)N[C@H](C(=O)NCC#N)Cc3ccc(OCCN)c(c3)-c3cc2ccc3OCCN)c(C)c1 [Compound 501] | – | > 0.13 | – | 0.38 (≈ 0.418 µM) | 16 (≈ 17.6 µM)
Cc1nc(-c2ccc(CC(C)C)cc2)ccc1C(=O)N[C@@H](CCN)C(=O)N(C)[C@@H]1C(=O)N[C@@H](C)C(=O)N[C@H](C(=O)NCC#N)Cc2ccc(O)c(c2)-c2cc1ccc2OCCN [Compound 502] | – | 0.003 (≈ 0.00355 µM) | – | 0.063 (≈ 0.0745 µM) | 0.25 (≈ 0.296 µM)
CCCCc1ccc(-c2ncc(C(=O)N[C@@H](CCN)C(=O)N(C)[C@@H]3C(=O)N[C@@H](C)C(=O)N[C@H](C(=O)NCC#N)Cc4ccc(O)c(c4)-c4cc3ccc4OCCN)c(C)n2)cc1 [Compound 503] | – | 0.002 (≈ 0.00236 µM) | – | 0.031 (≈ 0.0366 µM) | 0.13 (≈ 0.153 µM)
CCCCCCc1ccc(-c2ncc(C(=O)N[C@@H](CCN)C(=O)N(C)[C@@H]3C(=O)N[C@@H](C)C(=O)N[C@H](C(=O)NCC#N)Cc4ccc(O)c(c4)-c4cc3ccc4OCCN)c(C)n2)cc1 [Compound 504] | – | 0.016 (≈ 0.0183 µM) | – | 0.094 (≈ 0.107 µM) | 0.25 (≈ 0.286 µM)
CCc1ccc(-c2ncc(C(=O)N[C@@H](CCN)C(=O)N(C)[C@@H]3C(=O)N[C@@H](C)C(=O)N[C@H](C(=O)NCC#N)Cc4ccc(O)c(c4)-c4cc3ccc4OCCN)c(C)n2)cc1 [Compound 505] | – | 0.016 (≈ 0.0195 µM) | – | 0.25 (≈ 0.305 µM) | 2 (≈ 2.44 µM)
CCCCCCc1ccc(-c2ncc(C(=O)N[C@@H](CCN)C(=O)N(C)[C@@H]3C(=O)N[C@@H](C)C(=O)N[C@H](C(=O)NCC#N)Cc4ccc(OCCN)c(c4)-c4cc3ccc4OCCN)n2C)cc1 [Compound 507] | – | 0.016 (≈ 0.0177 µM) | – | 0.031 (≈ 0.0342 µM) | 0.75 (≈ 0.828 µM)
CCCCc1ccc(C(=O)N[C@@H](CCCCN)CC(=O)N(C)[C@@H]2C(=O)N[C@@H](C)C(=O)N[C@H](C(=O)NCC#N)Cc3ccc(OCCN)c(c3)-c3cc2ccc3OCCN)c(C)c1 [Compound 509] | – | > 4 | – | 3 (≈ 3.51 µM) | > 64
CCCCc1ccc(C(=O)N[C@H](CCCCN)CC(=O)N(C)[C@@H]2C(=O)N[C@@H](C)C(=O)N[C@H](C(=O)NCC#N)Cc3ccc(OCCN)c(c3)-c3cc2ccc3OCCN)c(C)c1 [Compound 510] | – | > 4 | – | 1.5 (≈ 1.76 µM) | > 64
CCCCc1ccc(C(=O)N[C@@H](CCN)CC(=O)N(C)[C@@H]2C(=O)N[C@@H](C)C(=O)N[C@H](C(=O)NCC#N)Cc3ccc(OCCN)c(c3)-c3cc2ccc3OCCN)c(C)c1 [Compound 511] | – | 1 (≈ 1.21 µM) | – | 1.5 (≈ 1.82 µM) | > 64
CCCCCc1ccc(C(=O)N[C@@H](CCN)CC(=O)N(C)[C@@H]2C(=O)N[C@@H](C)C(=O)N[C@H](C(=O)NCC#N)Cc3ccc(OCCN)c(c3)-c3cc2ccc3OCCN)c(C)c1 [Compound 512] | – | 0.5 (≈ 0.595 µM) | – | 0.38 (≈ 0.452 µM) | 64 (≈ 76.2 µM)
CCCCCCc1ccc(C(=O)N[C@@H](CCN)CC(=O)N(C)[C@@H]2C(=O)N[C@@H](C)C(=O)N[C@H](C(=O)NCC#N)Cc3ccc(OCCN)c(c3)-c3cc2ccc3OCCN)c(C)c1 [Compound 513] | – | 0.13 (≈ 0.152 µM) | – | 0.19 (≈ 0.222 µM) | 16 (≈ 18.7 µM)
CCCCCCCCCCN(CCC(=O)N[C@@H](CCCCNC(=O)OC(C)(C)C)C(=O)N(C)[C@@H]1C(=O)N[C@@H](C)C(=O)N[C@H](C(=O)O)Cc2ccc(OC(=O)OC(C)(C)C)c(c2)-c2cc1ccc2OC1O[C@H](CO)[C@@H](O)[C@H](O)[C@H]1NC(=O)OC(C)(C)C)C(=O)OC(C)(C)C (stereo partly drawn) [Compound 516] | – | > 4 | – | 2 (≈ 1.52 µM) | > 64
CCCCc1ccc(-c2ccc(C(=O)N[C@@H](CCC(=O)NCC(O)CO)C(=O)N(C)[C@@H]3C(=O)N[C@@H](C)C(=O)N[C@H](C(=O)NCC#N)Cc4ccc(OCCN)c(c4)-c4cc3ccc4OCCN)cc2)cc1 (stereo partly drawn) [Compound 517] | – | 0.19 (≈ 0.195 µM) | – | 0.38 (≈ 0.389 µM) | 6 (≈ 6.15 µM)
CCCCCCc1ccc(C(=O)N[C@@H](CCN[C@@H]2[C@@H](O)[C@H](O)[C@@H](CO)O[C@@H]2O)C(=O)N(C)[C@@H]2C(=O)N[C@@H](C)C(=O)N[C@H](C(=O)NCC#N)Cc3ccc(OCCN)c(c3)-c3cc2ccc3OCCN)c(C)c1 [Compound 518] | 0.38 (≈ 0.379 µM) | 0.063 (≈ 0.0629 µM) | 4 (≈ 3.99 µM) | – | –
CCCCCCc1ccc(C(=O)N[C@@H](CCN)C(=O)N(C)[C@@H]2C(=O)N[C@@H](C)C(=O)N[C@H](C(=O)NCC#N)Cc3ccc(OCCN)c(c3)-c3cc2ccc3OCCN)c(OCCN)c1 [Compound 519] | – | 0.25 (≈ 0.282 µM) | – | 0.13 (≈ 0.147 µM) | 16 (≈ 18.1 µM)
CCCCCCCCCC(=O)N[C@H](CO)C(=O)N1CC(N)C[C@H]1C(=O)N(C)[C@@H]1C(=O)N[C@@H](C)C(=O)N[C@H](C(=O)NCC#N)Cc2ccc(OCCN)c(c2)-c2cc1ccc2OCCN (stereo partly drawn) [Compound 524-1] | 0.22 (≈ 0.247 µM) | 0.19 (≈ 0.213 µM) | 16 (≈ 18 µM) | – | –
CCCCCCCCCCNCC(CO)C(=O)N(C)[C@@H]1C(=O)N[C@@H](C)C(=O)N[C@H](C(=O)NCC#N)Cc2ccc(OCCN)c(c2)-c2cc1ccc2OCCN (stereo partly drawn) [Compound 525] | – | > 4 | – | 1.5 (≈ 1.93 µM) | > 64
